Results: patent US20260021095A1, “BIFUNCTIONAL COMPOUNDS CONTAINING PYRIDO[2,3-d]PYRIMIDIN-7(8H)-ONE DERIVATIVES FOR DEGRADING CYCLIN-DEPENDENT KINASE 2 VIA UBIQUITIN PROTEASOME PATHWAY” (NIKANG THERAPEUTICS, INC., priority 2022, published 2026)

Tests used:
[1] = target: T1, CDK2 (Homo sapiens, UniProt P24941); assay: Inhibition of CDK2: phospho-Rb (S807/811) HTRF measurement in OVCAR3 cells; format: cell-based; details: 24 h compound treatment, HTRF phospho-RB S807/811, read-out: pRb OVCAR3 (μM), CDK2 IC50 in pRB(S807/811) assay
T1 construct: High-Throughput Measurement of Cellular Endogenous CDK2; endogenous in cells; host or cells: OVCAR3
Protocol: Phosphorylation of RB protein at S807/811 were measured using HTRF phospho-RB cellular kits (Cat #64RBS807PEG) from Cisbio.
On Day 1, OVCAR3 (CDK2 dependent cell line) cells were seeded into 96-well tissue-culture treated plates at 20,000 cells/well in 200 μL and incubated overnight at 37° C. in CO2 atmosphere. On Day 2, the cells were treated with test compounds at concentrations from 0.3 to 10,000 nM using HP D300 digital dispenser. Twenty-four hours after compound treatment, cell culture media was removed by flicking the plate and tapping the plate against clean paper towel. Immediately 30 μL 1× lysis buffer was supplemented from the kit and the plate was incubated at room temperature on shaker for 30 min. After homogenization by pipetting up and down, 8 μL cell lysate from 96-well cell culture plate was transferred to 384-well small volume white detection plate. 2 μL premixed detection solution was added and the plate was covered with sealer. […] Detection plates were incubated for 4 h at room temperature and read on ClarioStar (BMG Labtech) in TR-FRET mode ([…]). […] Half maximal inhibition concentration (IC50) values are calculated with a four-parameter logistic fit using GraphPad Prism (version 8; La Jolla, CA). […]

[2] = target: T1, CDK2; assay: High-throughput HTRF measurement of cellular endogenous CDK2 (degradation) in OVCAR3 cells; format: cell-based; details: HTRF total CDK2, read-out: DC50 OVCAR3_6 h
Protocol: Effects of compounds on cellular CDK2 level can be monitored by a high-throughput HTRF assay.
To determine half maximal degradation concentration (DC50) values of compounds, cellular CDK2 level was measured in 96-well format using HTRF total CDK2 cellular kit (Cat #64CDK2TPEG) from Cisbio.
On Day 1, OVCAR3 cells were seeded into 96-well tissue-culture treated plates at 20,000 cells/well in 200 μL and incubated overnight at 37° C. in C02 atmosphere. On Day 2 cells were treated with compounds at concentration ranging from 0.3 to 10,000 nM using HP D300 digital dispenser. […] Immediately 30 μL 1× lysis buffer was supplemented from the kit and the plate was incubated at room temperature on shaker for 30 min. After homogenization by pipetting up and down, 8 μL cell lysate from 96-well cell culture plate was transferred to 384-well small volume white detection plate. 2 μL premixed detection solution was added and the plate was covered with sealer. […] Detection plates were incubated overnight at room temperature and read on ClarioStar (BMG Labtech) in TR-FRET mode (665 nM and 620 nM). […] Half maximal degradation concentration (DC50) values were calculated with a four-parameter logistic fit using GraphPad Prism (version 8; La Jolla, CA).

Work on `Cn1nc(N2CCC(=O)NC2=O)c2ccc(C3CCN(Cc4cccc(S(=O)(=O)N5CC[C@H](Nc6ncc7ccc(=O)n(C)c7n6)[C@H](F)C5)c4)CC3)cc21` (racemic) [compound 1, Rac-1-(6-(1-(3-(((3R,4S)-3-fluoro-4-((8-methyl-7-oxo-7,8-dihydropyrido[2,3-d]pyrimidin-2-yl)amino)piperidin-1-yl)sulfonyl)benzyl)-piperidin-4-yl)-1-methyl-1H-indazol-3-yl)-dihydropyrimidine-2,4(1H,3H)-dione] yielded an IC50 [1] of 0.1 to 1 µM and a DC50 [2] of 0.0419 µM.
With `Cn1nc(N2CCC(=O)NC2=O)c2ccc(C3CCN(Cc4cccc(S(=O)(=O)N5CC[C@H](Nc6ncc7ccc(=O)n(CC(F)(F)F)c7n6)[C@H](F)C5)c4)CC3)cc21` (racemic) [compound 2, Rac-1-(6-(1-(3-(((3R,4S)-3-fluoro-4-((7-oxo-8-(2,2,2-trifluoroethyl)-7,8-dihydropyrido[2,3-d]pyrimidin-2-yl)amino)piperidin-1-yl)-sulfonyl)benzyl)piperidin-4-yl)-1-methyl-1H-indazol-3-yl)dihydropyrimidine-2,4(1H,3H)-dione] the IC50 [1] was 1 to 10 µM and the DC50 [2] was 1.31 µM.
